Source: patent US20250171457A1, “NITROGEN-CONTAINING HETEROCYCLIC COMPOUND HAVING NRF2 ACTIVATION EFFECT” (CHUGAI SEIYAKU KABUSHIKI KAISHA, priority 2022, published 2025)

Tested on: Nrf2 transcriptional activity (pARE-Luc reporter) in HepG2 cells
Experiment: In vitro Nrf2 transcriptional activity measurement by ARE-dependent reporter assay in HepG2 cell
Assay type: cell-based, human
Conditions: Homo sapiens; HepG2 cells transfected with pARE-Luc, 4 hours at 37° C.; luciferase activity of Example 1-54 or Example 17-23 at 3.75 μM defined as 100%
How it was run: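 Luminescence readout (Bright-Glo) after 4 h, 37° C compound exposure of HepG2 cells carrying the ARE-luciferase vector pGL4.37. Each well converted to % response versus reference compound at 3.75 μM, and EC50 derived from dose-response curves.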

Q: With `Cc1c(C(CC(=O)O)c2cccc3c2CCN(C(=O)c2c(Cl)cc(-c4cnn(C)c4)cc2Cl)C3)ccc2c1nnn2C` (centres unmarked) [Compound 17-15, 3-[2-[2,6-Dichloro-4-(1-methylpyrazol-4-yl)benzoyl]-3,4-dihydro-1H-isoquinolin-5-yl]-3-(1,4-dimethylbenzotriazol-5-yl)propanoic acid] as the molecule, how does the EC50 read?
A: 58 nM

Q: `COCCN(C)c1cc(Cl)c(C(=O)N2COc3c(cccc3-c3cc(N4CCOCC4)c(C(=O)O)cc3F)C2)c(Cl)c1` [Compound 4-23, 4-[3-[2,6-Dichloro-4-[2-methoxyethyl(methyl)amino]benzoyl]-2,4-dihydro-1,3-benzoxazin-8-yl]-5-fluoro-2-morpholin-4-ylbenzoic acid] was tested. Which EC50 did it give?
A: 1.5 nM

Q: With `CO[C@H]1CC2(CN(c3cc(Cl)c(C(=O)N4COc5c(cccc5-c5cc(N6C7CCC6COC7)c(C(=O)O)cc5F)C4)c(Cl)c3)C2)[C@H]1C` (racemic) [Compound 1-87, 4-[3-[2,6-Dichloro-4-[rac-(6R,7S)-6-methoxy-7-methyl-2-azaspiro[3.3]heptan-2-yl]benzoyl]-2,4-dihydro-1,3-benzoxazin-8-yl]-5-fluoro-2-(3-oxa-8-azabicyclo[3.2.1]octan-8-yl)benzoic acid] as the molecule, how does the EC50 read?
A: 1 nM

Q: `CN1CCN(c2cc(Cl)c(C(=O)N3COc4c(cccc4-c4cc(N5C6CCC5COC6)c(C(=O)O)cc4F)C3)c(Cl)c2)C(C)(C)C1` [Compound 9-14, 4-[3-[2,6-Dichloro-4-(2,2,4-trimethylpiperazin-1-yl)benzoyl]-2,4-dihydro-1,3-benzoxazin-8-yl]-5-fluoro-2-(3-oxa-8-azabicyclo[3.2.1]octan-8-yl)benzoic acid] was tested. Which EC50 did it give?
A: 11 nM

Q: How did the EC50 turn out when `Cn1cc(-c2cc(Cl)c(C(=O)N3CSc4c(cccc4-c4cc(N5CCOCC5)c(C(=O)O)cc4F)C3)c(Cl)c2)cn1` [Compound 13-18, 4-[3-[2,6-Dichloro-4-(1-methylpyrazol-4-yl)benzoyl]-2,4-dihydro-1,3-benzothiazin-8-yl]-5-fluoro-2-morpholin-4-ylbenzoic acid] was run?
A: 21 nM

Q: How did the EC50 turn out when `Cn1ncc2c(Cl)c(C(=O)N3COc4c(cccc4-c4ccc(C(=O)O)c(N5CCOCC5)c4)C3)ccc21` [Compound 13-6, 4-[3-(4-Chloro-1-methylindazole-5-carbonyl)-2,4-dihydro-1,3-benzoxazin-8-yl]-2-morpholin-4-ylbenzoic acid] was run?
A: 7.5 nM

Q: For `CO[C@@H]1CC2(CN(c3cc(Cl)c(C(=O)N4COc5c(cccc5-c5cc(N6C7CCC6COC7)c(C(=O)O)cc5F)C4)c(Cl)c3)C2)[C@H]1C` (racemic) [Compound 1-86, 4-[3-[2,6-Dichloro-4-[rac-(6R,7R)-6-methoxy-7-methyl-2-azaspiro[3.3]heptan-2-yl]benzoyl]-2,4-dihydro-1,3-benzoxazin-8-yl]-5-fluoro-2-(3-oxa-8-azabicyclo[3.2.1]octan-8-yl)benzoic acid], which EC50 is on record?
A: 1.1 nM

Q: Which EC50 does the source give for `CN1CCCN(c2cc(Cl)c(C(=O)N3COc4c(cccc4-c4cc(N5CCOCC5)c(C(=O)O)cc4F)C3)c(Cl)c2)CC1` [Compound 4-22, 4-[3-[2,6-Dichloro-4-(4-methyl-1,4-diazepan-1-yl)benzoyl]-2,4-dihydro-1,3-benzoxazin-8-yl]-5-fluoro-2-morpholin-4-ylbenzoic acid] here?
A: 1.8 nM

Q: How did the EC50 turn out when `C[C@@H]1CN(c2cc(Cl)c(C(=O)N3COc4c(cccc4-c4cc(N5C6CCC5COC6)c(C(=O)O)cc4F)C3)c(Cl)c2)C[C@H](C)N1C` [Compound 10-4] was run?
A: 4.8 nM

Q: For `CN1CCN(c2cc(Cl)c(C(=O)N3COc4c(cccc4-c4cc(N5C6CCC5COC6)c(C(=O)O)cc4F)C3)c(Cl)c2)CC1(C)C` [Compound 10-6, 4-[3-[2,6-Dichloro-4-(3,3,4-trimethylpiperazin-1-yl)benzoyl]-2,4-dihydro-1,3-benzoxazin-8-yl]-5-fluoro-2-(3-oxa-8-azabicyclo[3.2.1]octan-8-yl)benzoic acid], which EC50 is on record?
A: 9.1 nM

Q: For `CN1CC2(C1)CN(c1cc(Cl)c(C(=O)N3COc4c(cccc4-c4cc(N5CCOCC5)c(C(=O)O)cc4F)C3)c(Cl)c1)C2` [Compound 10-12, 4-[3-[2,6-Dichloro-4-(6-methyl-2,6-diazaspiro[3.3]heptan-2-yl)benzoyl]-2,4-dihydro-1,3-benzoxazin-8-yl]-5-fluoro-2-morpholin-4-ylbenzoic acid], which EC50 is on record?
A: 1.2 nM

Q: Which EC50 does the source give for `CN1CCC(N2CCN(c3cc(Cl)c(C(=O)N4COc5c(cccc5-c5cc(N6CCOCC6)c(C(=O)O)cc5F)C4)c(Cl)c3)CC2)CC1` [Compound 1-60, 4-[3-[2,6-Dichloro-4-[4-(1-methylpiperidin-4-yl)piperazin-1-yl]benzoyl]-2,4-dihydro-1,3-benzoxazin-8-yl]-5-fluoro-2-morpholin-4-ylbenzoic acid] here?
A: 4.2 nM

Q: How did the EC50 turn out when `O=C(O)c1ccc(-c2cccc3c2OCN(C(=O)c2c(Cl)cc(N4CCC(N5CCOCC5)CC4)cc2Cl)C3)cc1N1CCOCC1` [Compound 1-65, 4-[3-[2,6-Dichloro-4-(4-morpholin-4-ylpiperidin-1-yl)benzoyl]-2,4-dihydro-1,3-benzoxazin-8-yl]-2-morpholin-4-ylbenzoic acid] was run?
A: 3.7 nM

Q: How did the EC50 turn out when `O=C(O)c1cc(F)c(-c2cccc3c2OCN(C(=O)c2c(Cl)cc(N4CCC5(CCOC5)C4)cc2Cl)C3)cc1N1CCOCC1` (centres unmarked) [Compound 1-49, 4-[3-[2,6-Dichloro-4-(2-oxa-7-azaspiro[4.4]nonan-7-yl)benzoyl]-2,4-dihydro-1,3-benzoxazin-8-yl]-5-fluoro-2-morpholin-4-ylbenzoic acid] was run?
A: 1.9 nM

Q: For `CCC(CC(=O)O)c1cccc2c1C(=O)NN(C(=O)c1c(Cl)cc(-c3cnn(C)c3)cc1Cl)C2` (centres unmarked) [Compound 17-9, 3-[2-[2,6-Dichloro-4-(1-methylpyrazol-4-yl)benzoyl]-4-oxo-1,3-dihydrophthalazin-5-yl]pentanoic acid], which EC50 is on record?
A: 21 nM

Q: How did the EC50 turn out when `Cn1cc2cc(-c3cc(Cl)c(C(=O)N4COc5c(cccc5-c5cc(N6C7CCC6COC7)c(C(=O)O)cc5F)C4)c(Cl)c3)ccc2n1` [Compound 3-12, 4-[3-[2,6-Dichloro-4-(2-methylindazol-5-yl)benzoyl]-2,4-dihydro-1,3-benzoxazin-8-yl]-5-fluoro-2-(3-oxa-8-azabicyclo[3.2.1]octan-8-yl)benzoic acid] was run?
A: 8.7 nM

Q: With `CN1CC2CN(c3cc(Cl)c(C(=O)N4COc5c(cccc5-c5cc(N6CCOCC6)c(C(=O)O)cc5F)C4)c(Cl)c3)CC2C1` (centres unmarked) [Compound 1-48, 4-[3-[2,6-Dichloro-4-(2-methyl-1,3,3a,4,6,6a-hexahydropyrrolo[3,4-c]pyrrol-5-yl)benzoyl]-2,4-dihydro-1,3-benzoxazin-8-yl]-5-fluoro-2-morpholin-4-ylbenzoic acid] as the molecule, how does the EC50 read?
A: 2.3 nM

Q: For `CCC1(OC)CN(c2cc(Cl)c(C(=O)N3COc4c(cccc4-c4cc(N5C6CCC5COC6)c(C(=O)O)cc4F)C3)c(Cl)c2)C1` [Compound 4-3, 4-[3-[2,6-Dichloro-4-(3-ethyl-3-methoxyazetidin-1-yl)benzoyl]-2,4-dihydro-1,3-benzoxazin-8-yl]-5-fluoro-2-(3-oxa-8-azabicyclo[3.2.1]octan-8-yl)benzoic acid], which EC50 is on record?
A: 1.7 nM

Q: Which EC50 does the source give for `COCCN1CCN(c2cc(Cl)c(C(=O)N3COc4c(ccc(F)c4-c4cc(N5CCOCC5)c(C(=O)O)cc4F)C3)c(Cl)c2)CC1` [Compound 1-81, 4-[3-[2,6-Dichloro-4-[4-(2-methoxyethyl)piperazin-1-yl]benzoyl]-7-fluoro-2,4-dihydro-1,3-benzoxazin-8-yl]-5-fluoro-2-morpholin-4-ylbenzoic acid] here?
A: 5.1 nM

Q: With `O=C(O)c1cc(F)c(-c2cccc3c2OCN(C(=O)c2c(Cl)cc(N4CCN(CC(F)(F)F)CC4)cc2Cl)C3)cc1N1C2CCC1COC2` [Compound 1-35, 4-[3-[2,6-Dichloro-4-[4-(2,2,2-trifluoroethyl)piperazin-1-yl]benzoyl]-2,4-dihydro-1,3-benzoxazin-8-yl]-5-fluoro-2-(3-oxa-8-azabicyclo[3.2.1]octan-8-yl)benzoic acid] as the molecule, how does the EC50 read?
A: 5.8 nM

Q: With `CO[C@H]1C[C@]2(CN(c3cc(Cl)c(C(=O)N4COc5c(cccc5-c5cc(N6C7CCC6COC7)c(C(=O)O)cc5F)C4)c(Cl)c3)[C@H]2C)C1` [Compound 1-27, 4-[3-[2,6-Dichloro-4-[(1S,4s,6R)-6-methoxy-1-methyl-2-azaspiro[3.3]heptan-2-yl]benzoyl]-2,4-dihydro-1,3-benzoxazin-8-yl]-5-fluoro-2-(3-oxa-8-azabicyclo[3.2.1]octan-8-yl)benzoic acid] as the molecule, how does the EC50 read?
A: 2.9 nM

Q: Which EC50 does the source give for `Cn1ccc2cc(C(=O)N3COc4c(cccc4-c4cc(N5CCOCC5)c(C(=O)O)cc4F)C3)c(Cl)cc21` [Compound 13-11, 4-[3-(6-Chloro-1-methylindole-5-carbonyl)-2,4-dihydro-1,3-benzoxazin-8-yl]-5-fluoro-2-morpholin-4-ylbenzoic acid] here?
A: 7.5 nM

Q: With `O=C(O)c1cc(F)c(-c2cccc3c2OCN(C(=O)c2c(Cl)cc(N4CCC4=O)cc2Cl)C3)cc1N1CCOCC1` [Compound 1-50, 4-[3-[2,6-Dichloro-4-(2-oxoazetidin-1-yl)benzoyl]-2,4-dihydro-1,3-benzoxazin-8-yl]-5-fluoro-2-morpholin-4-ylbenzoic acid] as the molecule, how does the EC50 read?
A: 4.6 nM

Q: For `O=C(O)c1cc(F)c(-c2cccc3c2OCN(C(=O)c2c(Cl)cc(N4CCN(CC5CCCO5)CC4)cc2Cl)C3)cc1N1C2CCC1COC2` (centres unmarked) [Compound 4-16, 4-[3-[2,6-Dichloro-4-[4-(oxolan-2-ylmethyl)piperazin-1-yl]benzoyl]-2,4-dihydro-1,3-benzoxazin-8-yl]-5-fluoro-2-(3-oxa-8-azabicyclo[3.2.1]octan-8-yl)benzoic acid], which EC50 is on record?
A: 2.9 nM

Q: For `COc1cc(C(=O)N2COc3c(cccc3-c3cc(N4CCOCC4)c(C(=O)O)cc3F)C2)c(Cl)cc1N1CC2(COC2)C1` [Compound 1-73, 4-[3-[2-Chloro-5-methoxy-4-(2-oxa-6-azaspiro[3.3]heptan-6-yl)benzoyl]-2,4-dihydro-1,3-benzoxazin-8-yl]-5-fluoro-2-morpholin-4-ylbenzoic acid], which EC50 is on record?
A: 5.1 nM

Q: How did the EC50 turn out when `CN(Cc1ccon1)c1cc(-c2cccc3c2OCN(C(=O)c2c(Cl)cc(-c4cnn(C)c4)cc2Cl)C3)c(F)cc1C(=O)O` [Compound 12-1, 4-[3-[2,6-Dichloro-4-(1-methylpyrazol-4-yl)benzoyl]-2,4-dihydro-1,3-benzoxazin-8-yl]-5-fluoro-2-[methyl(1,2-oxazol-3-ylmethyl)amino] benzoic acid] was run?
A: 11 nM
